Data reported in patent US20260256792A1, “TREATMENT OF CHRONIC SPONTANEOUS URTICARIA BY ADMINISTERING (R)-2-[3-[4-AMINO-3-(2-FLUORO-4-PHENOXY-PHENYL)PYRAZOLO[3,4-D]PYRIMIDIN-1-YL]PIPERIDINE-1-CARBONYL]-4-METHYL-4-[4-(OXETAN-3-YL)PIPERAZIN-1-YL]PENT-2-ENENITRILE” (priority 2023, published 2026).

Tested on: moderate-to-severe chronic spontaneous urticaria (CSU)
Assay: Phase 2 CSU study: urticaria activity score over 7 days (UAS7)
Assay type: in vivo, human
Set-up: key to UAS7 Median / UAS7 Change from baseline Median / UAS7 change from baseline, Q1 / UAS7 change from baseline, Q3 / UAS7 change from baseline, Max / UAS7 Change from baseline LS Mean (SE): UAS7 points; daily UAS score ranges 0–6 points/day, over 7 days
Text: The study comprises a 12 week, randomized, double-blind, placebo-controlled, multi-center, dose-ranging efficacy and safety phase, followed by a 40 week open label extension (OLE) phase (see FIG. 1). The study consists of three phases and an optional OLE phase. […] Clinically, CSU is characterized by the spontaneous and recurrent appearance of pruritic hives. The proposed primary endpoints were the UAS7 at Week 12 in EU and EU reference countries and the ISS7 in the US. Regardless of where a participant was from, all assessments were the same. The UAS7 score is a composite score containing both the HSS7 and the ISS7. This allowed a global assessment of the two key components of urticaria: hives and itch. […] The UAS is a validated PRO measure. […] The daily UAS scores range from 0 to 6 point/day. […] Patients were to complete the UAS using the e-diary. […] The following secondary endpoints were to be analyzed using the same approach as for the primary endpoint: • Change from baseline in UAS7 at Week 4 • Change from baseline in UAS7 at Week 12 (for US and US reference countries) • Change from baseline in ISS7 at Week 12 (except US and US reference countries) • Change from baseline in HSS7 at Week 12 The following responder secondary endpoints were to be analyzed using the Cochran-Mantel-Haenszel test adjusted by region: • Proportion of participants with UAS7<6 at Week 12 • Proportion of participants with UAS7=0 at Week 12 Participants who received selected prohibited medications and/or rescue medications were to be considered as non-responders for time points after the medication usage. For other participants, all available data including those collected during the off-treatment period were to be used to determine the responder/non-responder status. Missing data were to be considered as non-responders.

[1] = Week 8, 400 mg BID, omalizumab-naive participants
[2] = Week 8, 400 mg QPM, ITT population
[3] = Week 8, 400 mg QPM, Omalizumab-Naïve
[4] = Week 8, 400 mg QPM, Prior Omalizumab Use
[5] = Week 8, 400 mg QPM, omalizumab-naive participants
[6] = Week 8, 400 mg TID, ITT population
[7] = Week 8, 400 mg TID, Omalizumab-Naïve
[8] = Week 8, 400 mg TID, Prior Omalizumab Use
[9] = Week 8, 400 mg TID, omalizumab-naive participants
[10] = Week 9, 400 mg BID, ITT population
[11] = Week 9, 400 mg BID, Omalizumab-Naïve
[12] = Week 9, 400 mg BID, Prior Omalizumab Use
[13] = Week 9, 400 mg BID, omalizumab-naive participants
[14] = Week 9, 400 mg QPM, ITT population
[15] = Week 9, 400 mg QPM, Omalizumab-Naïve
[16] = Week 9, 400 mg QPM, Prior Omalizumab Use
[17] = Week 9, 400 mg QPM, omalizumab-naive participants
[18] = Week 9, 400 mg TID, ITT population
[19] = Week 9, 400 mg TID, Omalizumab-Naïve
[20] = Week 9, 400 mg TID, Prior Omalizumab Use
[21] = Week 9, 400 mg TID, omalizumab-naive participants
[22] = Week 10, 400 mg BID, ITT population
[23] = Week 10, 400 mg BID, Omalizumab-Naïve
[24] = Week 10, 400 mg BID, Prior Omalizumab Use
[25] = Week 10, 400 mg BID, omalizumab-naive participants
[26] = Week 10, 400 mg QPM, ITT population
[27] = Week 10, 400 mg QPM, Omalizumab-Naïve
[28] = Week 10, 400 mg QPM, Prior Omalizumab Use
[29] = Week 10, 400 mg QPM, omalizumab-naive participants

## CC(C)(C=C(C#N)C(=O)N1CCC[C@@H](n2nc(-c3ccc(Oc4ccccc4)cc3F)c3c(N)ncnc32)C1)N1CCN(C2COC2)CC1 [rilzabrutinib, (R)-2-[3-[4-amino-3-(2-fluoro-4-phenoxy-phenyl)pyrazolo[3,4-d]pyrimidin-1-yl]piperidine-1-carbonyl]-4-methyl-4-[4-(oxetan-3-yl)piperazin-1-yl]pent-2-enenitrile]
[1]
  RRD (%) for rilzabrutinib vs. placebo, UAS7 reduction of 10 points or more: 24.0 %
  Responder, UAS7 reduction from baseline of 10 points or more: 21 (60.0) n (%)
[2]
  Non-responder, UAS7 reduction from baseline of 10 points or more: 21 (55.3) n (%)
  OR for rilzabrutinib vs. placebo, UAS7 reduction of 10 points or more: 1.257
  RRD (%) for rilzabrutinib vs. placebo, UAS7 reduction of 10 points or more: 5.3 %
  Responder, UAS7 reduction from baseline of 10 points or more: 17 (44.7) n (%)
[3]
  UAS7 Change from baseline Mean (SD): −10.63 (9.70)
  UAS7 Change from baseline Median: −10.80
  UAS7 Median: 21.00
  UAS7 Percent change from baseline Mean (SD): −33.68 (30.26) %
  UAS7 Percent change from baseline Median: −31.82%
[4]
  UAS7 Change from baseline Mean (SD): −25.00 (NC)
  UAS7 Change from baseline Median: −25.00
  UAS7 Mean (SD): 16.00 (NC)
  UAS7 Median: 16.00
  UAS7 Percent change from baseline Mean (SD): −60.98 (NC) %
  UAS7 Percent change from baseline Median: −60.98%
[5]
  Non-responder, UAS7 reduction from baseline of 10 points or more: 21 (56.8) n (%)
  OR for rilzabrutinib vs. placebo, UAS7 reduction of 10 points or more: 1.331
  RRD (%) for rilzabrutinib vs. placebo, UAS7 reduction of 10 points or more: 6.6 %
  Responder, UAS7 reduction from baseline of 10 points or more: 16 (43.2) n (%)
[6]
  Non-responder, UAS7 reduction from baseline of 10 points or more: 14 (34.1) n (%)
  RRD (%) for rilzabrutinib vs. placebo, UAS7 reduction of 10 points or more: 23.2 %
  Responder, UAS7 reduction from baseline of 10 points or more: 27 (65.9) n (%)
[7]
  UAS7 Change from baseline Mean (SD): −16.89 (10.13)
  UAS7 Change from baseline Median: −15.17
  UAS7 Mean (SD): 13.36 (9.81)
  UAS7 Median: 14.00
  UAS7 Percent change from baseline Mean (SD): −55.66 (31.25) %
  UAS7 Percent change from baseline Median: −55.83%
[8]
  UAS7 Change from baseline Median: −25.58
  UAS7 Mean (SD): 7.50 (11.26)
  UAS7 Median: 3.00
  UAS7 Percent change from baseline Mean (SD): −78.96 (25.66) %
  UAS7 Percent change from baseline Median: −84.90%
[9]
  Non-responder, UAS7 reduction from baseline of 10 points or more: 13 (37.1) n (%)
  OR for rilzabrutinib vs. placebo, UAS7 reduction of 10 points or more: 2.815
  RRD (%) for rilzabrutinib vs. placebo, UAS7 reduction of 10 points or more: 25.7 %
  Responder, UAS7 reduction from baseline of 10 points or more: 22 (62.9) n (%)
[10]
  Non-responder, UAS7 reduction from baseline of 10 points or more: 20 (48.8) n (%)
  OR for rilzabrutinib vs. placebo, UAS7 reduction of 10 points or more: 1.471
  RRD (%) for rilzabrutinib vs. placebo, UAS7 reduction of 10 points or more: 10.6 %
  Responder, UAS7 reduction from baseline of 10 points or more: 21 (51.2) n (%)
[11]
  UAS7 Change from baseline Median: −17.00
  UAS7 Mean (SD): 14.64 (14.43)
  UAS7 Percent change from baseline Mean (SD): −53.27 (40.38) %
  UAS7 Percent change from baseline Median: −59.77%
[12]
  UAS7 Change from baseline Mean (SD): −20.83 (19.15)
  UAS7 Change from baseline Median: −27.00
  UAS7 Mean (SD): 11.17 (15.78)
  UAS7 Median: 1.00
  UAS7 Percent change from baseline Mean (SD): −60.63 (52.86) %
  UAS7 Percent change from baseline Median: −97.62%
[13]
  Non-responder, UAS7 reduction from baseline of 10 points or more: 17 (48.6) n (%)
  OR for rilzabrutinib vs. placebo, UAS7 reduction of 10 points or more: 1.764
  RRD (%) for rilzabrutinib vs. placebo, UAS7 reduction of 10 points or more: 16.0 %
  Responder, UAS7 reduction from baseline of 10 points or more: 18 (51.4) n (%)
[14]
  Non-responder, UAS7 reduction from baseline of 10 points or more: 20 (52.6) n (%)
  OR for rilzabrutinib vs. placebo, UAS7 reduction of 10 points or more: 1.452
  RRD (%) for rilzabrutinib vs. placebo, UAS7 reduction of 10 points or more: 8.5 %
  Responder, UAS7 reduction from baseline of 10 points or more: 18 (47.4) n (%)
[15]
  UAS7 Change from baseline Median: −11.00
  UAS7 Mean (SD): 20.25 (10.25)
  UAS7 Median: 19.33
  UAS7 Percent change from baseline Mean (SD): −36.26 (27.83) %
  UAS7 Percent change from baseline Median: −32.58%
[16]
  UAS7 Change from baseline Mean (SD): −23.00 (NC)
  UAS7 Change from baseline Median: −23.00
  UAS7 Mean (SD): 18.00 (NC)
  UAS7 Median: 18.00
  UAS7 Percent change from baseline Mean (SD): −56.10 (NC) %
  UAS7 Percent change from baseline Median: −56.10%
[17]
  Non-responder, UAS7 reduction from baseline of 10 points or more: 20 (54.1) n (%)
  OR for rilzabrutinib vs. placebo, UAS7 reduction of 10 points or more: 1.522
  RRD (%) for rilzabrutinib vs. placebo, UAS7 reduction of 10 points or more: 9.7 %
  Responder, UAS7 reduction from baseline of 10 points or more: 17 (45.9) n (%)
[18]
  Non-responder, UAS7 reduction from baseline of 10 points or more: 13 (31.7) n (%)
  OR for rilzabrutinib vs. placebo, UAS7 reduction of 10 points or more: 3.243
  RRD (%) for rilzabrutinib vs. placebo, UAS7 reduction of 10 points or more: 26.2 %
  Responder, UAS7 reduction from baseline of 10 points or more: 28 (68.3) n (%)
[19]
  UAS7 Change from baseline Mean (SD): −17.88 (11.04)
  UAS7 Change from baseline Median: −17.00
  UAS7 Mean (SD): 12.57 (9.72)
  UAS7 Percent change from baseline Mean (SD): −57.42 (32.58) %
  UAS7 Percent change from baseline Median: −60.00%
[20]
  UAS7 Change from baseline Median: −24.92
  UAS7 Median: 4.00
  UAS7 Percent change from baseline Mean (SD): −77.44 (25.29) %
  UAS7 Percent change from baseline Median: −85.78%
[21]
  Non-responder, UAS7 reduction from baseline of 10 points or more: 12 (34.3) n (%)
  OR for rilzabrutinib vs. placebo, UAS7 reduction of 10 points or more: 3.460
  RRD (%) for rilzabrutinib vs. placebo, UAS7 reduction of 10 points or more: 29.2 %
  Responder, UAS7 reduction from baseline of 10 points or more: 23 (65.7) n (%)
[22]
  Non-responder, UAS7 reduction from baseline of 10 points or more: 20 (48.8) n (%)
  RRD (%) for rilzabrutinib vs. placebo, UAS7 reduction of 10 points or more: 2.8 %
  Responder, UAS7 reduction from baseline of 10 points or more: 21 (51.2) n (%)
[23]
  UAS7 Change from baseline Mean (SD): −14.01 (11.59)
  UAS7 Change from baseline Median: −14.50
  UAS7 Mean (SD): 15.22 (14.36)
  UAS7 Median: 13.50
  UAS7 Percent change from baseline Mean (SD): −50.88 (41.19) %
  UAS7 Percent change from baseline Median: −51.79%
[24]
  UAS7 Change from baseline Mean (SD): −19.40 (18.66)
  UAS7 Change from baseline Median: −23.00
  UAS7 Mean (SD): 12.60 (14.98)
  UAS7 Median: 4.00
  UAS7 Percent change from baseline Mean (SD): −55.61 (51.03) %
  UAS7 Percent change from baseline Median: −85.19%
[25]
  Non-responder, UAS7 reduction from baseline of 10 points or more: 17 (48.6) n (%)
  OR for rilzabrutinib vs. placebo, UAS7 reduction of 10 points or more: 1.312
  RRD (%) for rilzabrutinib vs. placebo, UAS7 reduction of 10 points or more: 7.2 %
  Responder, UAS7 reduction from baseline of 10 points or more: 18 (51.4) n (%)
[26]
  Non-responder, UAS7 reduction from baseline of 10 points or more: 19 (50.0) n (%)
  OR for rilzabrutinib vs. placebo, UAS7 reduction of 10 points or more: 1.159
  RRD (%) for rilzabrutinib vs. placebo, UAS7 reduction of 10 points or more: 3.5 %
  Responder, UAS7 reduction from baseline of 10 points or more: 19 (50.0) n (%)
[27]
  UAS7 Change from baseline Mean (SD): −11.73 (10.20)
  UAS7 Change from baseline Median: −10.00
  UAS7 Mean (SD): 20.27 (10.69)
  UAS7 Median: 17.00
  UAS7 Percent change from baseline Mean (SD): −36.15 (29.79) %
  UAS7 Percent change from baseline Median: −36.70%
[28]
  UAS7 Change from baseline Mean (SD): −25.00 (NC)
  UAS7 Change from baseline Median: −25.00
  UAS7 Mean (SD): 16.00 (NC)
  UAS7 Median: 16.00
  UAS7 Percent change from baseline Mean (SD): −60.98 (NC) %
  UAS7 Percent change from baseline Median: −60.98%
[29]
  Non-responder, UAS7 reduction from baseline of 10 points or more: 19 (51.4) n (%)
  OR for rilzabrutinib vs. placebo, UAS7 reduction of 10 points or more: 1.190
  RRD (%) for rilzabrutinib vs. placebo, UAS7 reduction of 10 points or more: 4.1 %
  Responder, UAS7 reduction from baseline of 10 points or more: 18 (48.6) n (%)
